Reference: US11976280B2, “SMAC/Diablo inhibitors useful for treating cancer” (THE NATIONAL INSTITUTE FOR BIOTECHNOLOGY IN THE NEGEV LTD., priority 2017, dated 2024)
d = 2'-deoxy (DNA); r = 2'-OH (RNA)

Key:
[1] = test system: HeLa, A549, and H358 cells; test: Cellular ATP levels, luciferase-based assay (CellTiter-Glo); assay type: cell-based, human; settings: 50 nM
Experimental: Cellular ATP levels were estimated using the luciferase-based assay (CellTiter-Glo, Promega). Cells were transfected with si-hSMAC and 48 h and 72 h post-transfection, were washed twice with PBS and seeded in 96-well plates at densities of 5×10^4 cells/ml (A549, HeLa cells and H358, non-small cell lung cancer cells). ATP levels were assayed according to the manufacturer's protocol and luminescence was recorded using an Infinite M1000 plate reader.

[2] = test system: A549 cells-derived tumors; test: Phospholipids, phosphatidylcholine and phosphatidylethanolamine in tumor lipid extracts; assay type: in vivo, mice
Experimental: Lipids were extracted from si-NT-TTs and si-hSMAC-A-TTs as described previously (Folch, J., M. et al., 1957. J Biol Chem, 226(1): p. 497-509.). Briefly, 10-20 mg of tissue were added to CHCl3/MeOH (2:1, v/v) (7.5 mg/ml) and homogenized twice using ultrasound sonication. Water (12 μl/mg) was added to the suspension; the tube was closed with a glass cap and shaken at room temperature for 2 h at 400 rpm. The suspension was heated to 60° C. for […] and subsequently stored at 8° C. for more than 1 h in order to denature proteolipids. Undissolved material was separated by filtration through a Syringe Filter (0.4 μm pore). After evaporation of solvent, the residue was re-dissolved in CHCl3/MeOH. The suspension was filtered and the solvent was evaporated again. The weight of the extracted lipids was determined.
Phospholipids content of the lipids extracted from si-NT-TTs and si-hSMAC-A-TTs as described above was determined based on the formation of a complex of the phospholipids with ammonium ferrothiocyanate as described previously (Stewart, J. C., 1980. Anal Biochem, 104(1): p. 10-14). The absorbance at 488 nm was determined and the amounts of phospholipids were calculated using phosphatidylcholine (PC) a standard (10-100 μg). For phosphatidylcholine (PC) determination, samples of the extracted lipids were analyzed using ammonium thiocyanatocobaltate reagent as described previously (Yoshida, Y., E. et al., 1979. J Biochem, 86(3): p. 825-828). The absorbance at 316 nm was measured and PC amount was calculated using a phosphatidylcholine standard (10-100 μg).
Phosphatidylethanolamine (PE) content of the lipids extracted from si-NT-TTs and si-hSMAC-A-TTs was measured using a fluorescence-based assay as described previously (Jae-Yeon Choi et al. 2018. J. Biol. Chem 293, 1493-1503). Briefly, samples of lipid extracted from tumors as described above were dissolved in chloroform and after then chloroform was evaporated under gas nitrogen. The dried extract was then re-suspended in 0.8 mM Triton X-100. To 20 μl of lipid samples, reaction mixture including 50 μl reaction buffer (80 mM NaCl, 2 mM KPO4, pH 7.4), 30 μL H2O and 12.5 μl borate buffer (100 mM boric acid, NaCl 75 mM, sodium tetraborate 25 mM, pH, 9) were added and placed in 96 well plate and mixed well. 12.5 μl of 100 μM distyrylbenzene-bis-aldehyde (DSB-3), kindly provided by Prof. Uwe Bunz, (Organisch-Chemisches Institute, Heidelberg, Germany) prepared in 10 mM KH2PO4, pH 7.4 were then added. After 2 h of incubation in dark with shaking at 100 rpm, fluorometric detection of PE was carried out at λex=403 nm, λem=508 nm, using a plate reader. A standard curve using purified PE was carried out in parallel.
The amounts of total phospholipids and PC in si-NC-TTs and si-SMAC-A-TTs lipid extracts were analyzed (FIG. 10F). […]

[3] = test system: A549 cells-derived tumors; test: Transmission electron microscopy of tumor ultrastructure; assay type: in vivo, mice
Description: In si-NT-TTs, a massive amount of intracellular vesicles of different sizes and densities, such as lysosomes and large vesicles containing surfactant-accumulating lamellar bodies were seen. Such vesicles were not observed in the tumors where hSMAC/Diablo was silenced (si-hSMAC-A-TTs) (FIG. 10D, 12A).
This may be associated with cell differentiation processes. […] The large nuclei in si-NT-TTs could result from membrane fluidity and/or osmolality changes, as reflected in the modified expression of transporters (FIG. 11A, Table 4). Changes in the expression of genes associated with cell membrane, exosomes, and ER- and Golgi-related proteins (FIG. 11A, 11B) and in cell ultrastructure (FIG. 10D, 10E), are summarized in a schematic model (FIG. 12C).

## si-hSMAC-A: siRNA to human SMAC/Diablo; sense 5′AAGCGGUGUUUCUCAGAAUUGtt3′ (SEQ ID NO:20), antisense 5′AACAAUUCUGAGAAACCCGCtt3′ (SEQ ID NO:21) (sense AAGCGGUGUUUCUCAGAAUUGTT; antisense AACAAUUCUGAGAAACCCGCTT; sense: sugars from the 5' end r21 d2, backbone not given here; antisense: sugars from the 5' end r20 d2, backbone not given here)
[1]
  reduction of cellular ATP levels: 20-35%
[2]; relative to si-NT-TTs
  decrease in phospholipids and specifically PC content: 40-50%
  increase in phosphatidylethanolamine (PE) levels: 2 fold
[2]; tumor lipid extracts
  decrease in PC: 37%
  decrease in total phospholipids: 47%
[3]; mouse, in vivo
  DNA form in the nucleus: mainly found as euchromatin
  intracellular vesicles incl. lamellar bodies, TEM: not observed
[3]; vs si-NT-TTs
  sizes of nuclei: almost twice
